IC50 data for 1 compound are collected here from PMC10069031 (European Journal of Medical Research, 2023).

This test has as its system ERK1/2. Put plainly: Inhibition of ERK activation in CSF1-stimulated RAW264.7 cells (western blot). The conditions noted are these: Mus musculus, mean ± SD (replicates), read-out: Mean kinase IC50 values: P(T185,202;Y187,204) ERK1/2 [WB]. The test is classed as cell-based, mouse. As for the experimental part: RAW264.7 cells (10^6) were seeded into cell culture dishes 6 cm in diameter and incubated in 4 mL RPMI/10% fetal bovine serum (Biochrom) for 24 h at 37 °C in a humidified 5% CO2 atmosphere. Cells were washed once with phosphate-buffered saline (PBS) and starved in 3 mL RPMI/0.1% bovine serum albumin for another 24 h. Cells were then treated for 1 h at 37 °C with drugs at the indicated final concentrations, with 0.5% DMSO as vehicle control, or left untreated, and finally stimulated for 2 min at 37 °C with 100 ng/mL recombinant mouse CSF1 (R&D Systems) by adding 1 mL prewarmed starving medium containing 400 ng/mL CSF1. Dishes were placed on ice and cells were immediately washed with ice-cold PBS and lysed with 50 µL lysis buffer (50 mM HEPES pH 7.5, 150 mM NaCl, 1.5 mM MgCl2, 10% glycerol, 1% Triton X-100, 0.5% desoxycholate, 0.2% sodium dodecyl sulfate, 1 mM ethylene glycol-bis[β-aminoethyl ether]-N,N,N′,N′-tetraacetic acid, 100 mM NaF, 10 mM Na4P2O7, 1 mM Na3VO4, 1% Phosphatase Inhibitor Cocktail 3 [Sigma-Aldrich], 1 mM phenylmethyl sulfonyl fluoride, Complete Protease Inhibitor Cocktail [Roche CustomBiotech; 1 tablet/10 mL], and 50 U/mL Benzonase [Sigma-Aldrich]). Lysed cells were scraped into Eppendorf tubes, incubated on ice for 20 min, and centrifuged at 4 °C for 10 min at 13,000 rpm; supernatants (lysates) were transferred into new tubes and stored at −80 °C.
Protein concentrations were determined using Pierce bicinchoninic acid assay (Thermo Fisher Scientific) and 40 µg/lane of total lysate was separated by SDS-PAGE on 4–12% Criterion XT Bis–Tris Gels (Bio-Rad) and subsequently transferred to polyvinylidene difluoride membranes using the Trans Blot Turbo Blotting System (Bio-Rad). For antigen detection, membranes were blocked with PBS Odyssey blocking reagent (LI-COR Biosciences) for 1 h at room temperature (RT). Primary antibodies were incubated overnight at 4 °C and the fluorescent secondary antibodies were incubated for 1 h at RT. After each antibody incubation, blots were washed with PBS with 0.05% Tween 20 (Carl Roth) for 15–30 min at RT. Fluorescent signals were quantitatively captured using the Odyssey DLx Infrared Imaging System (LI-COR Biosciences) and the half-maximal inhibitory concentration (IC50) values were calculated using GraphPad software (version 7 or newer).

The IC50 is the concentration at which inhibition is half-maximal. In the case of `CNC(=O)c1cc(Oc2ccc(NC(=O)Nc3ccc(Cl)c(C(F)(F)F)c3)c(F)c2)ccn1` [REG, Regorafenib], the IC50 came to 293 ± 123 nM.
